“And” between values parts separate entries of the source, which are not always exact repeats. Equal entries are not always repeated.
Target: mGluR1 (Rattus norvegicus, UniProt P23385)
Assay: Two-tissue compartment model (2TCM) kinetic analysis of PET data
Format: in vivo
Design: from tissue; host or cells: living SD rat brain (in vivo PET)
Method: Kinetic analysis of [^11C]ITMM was performed using the two-tissue compartment model (2TCM). The compartments correspond to the radioactivity concentrations of unchanged radioprobe in the plasma (C P), free and non-specifically bound radioprobe (C 1), and radioprobe specifically bound to receptors (C 2). The rate constants K 1 and k 2 correspond to the influx and outflux rates of the radioprobe across the blood-brain barrier. The rate constants k 3 and k 4 correspond to the rates of radioprobe transfer between the C 1 and C 2 compartments. The blood volume fraction (vB) in the rat brain was fixed at 2% [28]. The four rate constants of the 2TCM were obtained by a nonlinear least squares fitting technique, using PMOD version 3.4 (PMOD Technologies).
The distribution of [^11C]ITMM in free or tissue compartments was described using the concept of free ligand distribution volume (DV f) or V T, which was defined by the following equations: DVf=K1/k2 (1) VT=DVf(1+k3/k4) (2)
The nondisplacable binding potential (BP ND) is defined using the index of specific bindings of the radioprobe, meaning the receptor density (B max) to binding affinity (K D) ratio, which corresponds with the ratio of k 3 to k 4 in the 2TCM [26]. The BP ND is defined as follows: BPND=fND⋅Bmax/KD=k3/k4 (3) Here, f ND represents the tissue-free fraction of radioprobe in the nondisplacable compartment. Although the fraction of radioprobe that is unbound to plasma proteins was not measured in the present study, the value of f ND is close to 1.0 [29].

[1] = cingulate cortex, conventional SA
[2] = cingulate cortex, ultra-high SA
[3] = substantia nigra, conventional SA
[4] = substantia nigra, ultra-high SA

mGluR1, sequence (P23385 19-1199): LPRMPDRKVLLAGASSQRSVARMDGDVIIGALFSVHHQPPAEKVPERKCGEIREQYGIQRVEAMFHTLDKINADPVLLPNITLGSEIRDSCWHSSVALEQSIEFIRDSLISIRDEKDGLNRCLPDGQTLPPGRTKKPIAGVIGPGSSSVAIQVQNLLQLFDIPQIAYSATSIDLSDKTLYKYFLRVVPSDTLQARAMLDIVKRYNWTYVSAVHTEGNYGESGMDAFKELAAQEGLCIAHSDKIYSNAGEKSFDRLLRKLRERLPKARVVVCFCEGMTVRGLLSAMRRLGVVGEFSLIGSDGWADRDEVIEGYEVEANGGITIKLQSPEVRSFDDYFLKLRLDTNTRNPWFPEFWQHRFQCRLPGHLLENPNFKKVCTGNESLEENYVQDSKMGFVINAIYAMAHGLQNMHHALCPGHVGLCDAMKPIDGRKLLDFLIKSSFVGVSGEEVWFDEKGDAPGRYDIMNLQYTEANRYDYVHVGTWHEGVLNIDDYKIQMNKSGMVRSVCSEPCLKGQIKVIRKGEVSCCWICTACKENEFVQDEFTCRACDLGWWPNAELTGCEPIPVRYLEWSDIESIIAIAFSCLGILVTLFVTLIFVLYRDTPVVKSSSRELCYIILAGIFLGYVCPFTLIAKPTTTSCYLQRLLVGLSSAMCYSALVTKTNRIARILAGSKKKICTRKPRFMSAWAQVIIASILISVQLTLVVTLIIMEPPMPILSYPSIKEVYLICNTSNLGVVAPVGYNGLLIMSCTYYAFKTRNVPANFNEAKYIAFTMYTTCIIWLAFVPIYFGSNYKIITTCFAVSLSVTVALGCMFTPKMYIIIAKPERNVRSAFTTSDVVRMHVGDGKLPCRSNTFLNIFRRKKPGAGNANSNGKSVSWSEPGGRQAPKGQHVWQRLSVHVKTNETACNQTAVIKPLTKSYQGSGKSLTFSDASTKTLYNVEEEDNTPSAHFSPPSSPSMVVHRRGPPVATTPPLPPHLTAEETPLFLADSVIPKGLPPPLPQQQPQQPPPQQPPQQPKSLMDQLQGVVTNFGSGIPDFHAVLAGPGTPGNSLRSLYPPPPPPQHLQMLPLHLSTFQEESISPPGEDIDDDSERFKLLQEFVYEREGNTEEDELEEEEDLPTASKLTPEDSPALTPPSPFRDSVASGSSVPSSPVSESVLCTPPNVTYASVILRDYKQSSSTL

SMILES: CC(C)Nc1cc(-c2csc(N(C)C(=O)c3ccc(O[11CH3])cc3)n2)ncn1 [[^11C]ITMM, N-[4-[6-(isopropylamino)pyrimidin-4-yl]-1,3-thiazol-2-yl]-4-[^11C]methoxy-N-methyl-benzamide]
- BP ND (k 3/k 4) (cerebellum, conventional SA): 33.2 ± 1.4
- DV f (K 1/k 2) (cerebellum, conventional SA): 0.429 ± 0.020
- K 1 (cerebellum, conventional SA): 0.344 ± 0.010 mL/cm^3/min
- V T (cerebellum, conventional SA): 14.56 ± 0.50 mL/cm^3
- k 2 (cerebellum, conventional SA): 0.811 ± 0.045 min⁻¹
- k 3 (cerebellum, conventional SA): 0.619 ± 0.035 min⁻¹
- k 4 (cerebellum, conventional SA): 0.019 ± 0.001 min⁻¹
- BP ND (k 3/k 4) (cerebellum, ultra-high SA): 48.9 ± 2.6
- DV f (K 1/k 2) (cerebellum, ultra-high SA): 0.336 ± 0.020
- K 1 (cerebellum, ultra-high SA): 0.366 ± 0.019 mL/cm^3/min
- V T (cerebellum, ultra-high SA): 16.69 ± 0.92 mL/cm^3
- k 2 (cerebellum, ultra-high SA): 1.112 ± 0.098 min⁻¹
- k 3 (cerebellum, ultra-high SA): 0.799 ± 0.035 min⁻¹
- k 4 (cerebellum, ultra-high SA): 0.016 ± 0.000 min⁻¹
- BP ND (k 3/k 4) [1]: 21.7 ± 1.2
- DV f (K 1/k 2) [1]: 0.302 ± 0.021
- K 1 [1]: 0.312 ± 0.008 mL/cm^3/min
- V T [1]: 6.76 ± 0.25 mL/cm^3
- k 2 [1]: 1.062 ± 0.086 min⁻¹
- k 3 [1]: 0.643 ± 0.053 min⁻¹
- k 4 [1]: 0.030 ± 0.001 min⁻¹
- BP ND (k 3/k 4) [2]: 32.8 ± 1.9
- DV f (K 1/k 2) [2]: 0.257 ± 0.008
- K 1 [2]: 0.339 ± 0.019 mL/cm^3/min
- V T [2]: 8.66 ± 0.45 mL/cm^3
- k 2 [2]: 1.317 ± 0.054 min⁻¹
- k 3 [2]: 0.740 ± 0.036 min⁻¹
- k 4 [2]: 0.023 ± 0.001 min⁻¹
- BP ND (k 3/k 4) (hippocampus, conventional SA): 24.8 ± 1.8
- DV f (K 1/k 2) (hippocampus, conventional SA): 0.292 ± 0.011
- K 1 (hippocampus, conventional SA): 0.303 ± 0.015 mL/cm^3/min
- V T (hippocampus, conventional SA): 7.44 ± 0.27 mL/cm^3
- k 2 (hippocampus, conventional SA): 1.052 ± 0.082 min⁻¹
- k 3 (hippocampus, conventional SA): 0.644 ± 0.051 min⁻¹
- k 4 (hippocampus, conventional SA): 0.026 ± 0.001 min⁻¹
- BP ND (k 3/k 4) (hippocampus, ultra-high SA): 38.2 ± 1.5
- DV f (K 1/k 2) (hippocampus, ultra-high SA): 0.228 ± 0.008
- K 1 (hippocampus, ultra-high SA): 0.320 ± 0.020 mL/cm^3/min
- V T (hippocampus, ultra-high SA): 8.93 ± 0.47 mL/cm^3
- k 2 (hippocampus, ultra-high SA): 1.415 ± 0.107 min⁻¹
- k 3 (hippocampus, ultra-high SA): 0.784 ± 0.027 min⁻¹
- k 4 (hippocampus, ultra-high SA): 0.021 ± 0.000 min⁻¹
- BP ND (k 3/k 4) (pons, conventional SA): 8.3 ± 0.5
- DV f (K 1/k 2) (pons, conventional SA): 0.224 ± 0.011
- K 1 (pons, conventional SA): 0.271 ± 0.015 mL/cm^3/min
- V T (pons, conventional SA): 2.06 ± 0.06 mL/cm^3
- k 2 (pons, conventional SA): 1.237 ± 0.122 min⁻¹
- k 3 (pons, conventional SA): 0.256 ± 0.022 min⁻¹
- k 4 (pons, conventional SA): 0.031 ± 0.001 min⁻¹
- BP ND (k 3/k 4) (pons, ultra-high SA): 9.8 ± 0.5
- DV f (K 1/k 2) (pons, ultra-high SA): 0.221 ± 0.015
- K 1 (pons, ultra-high SA): 0.244 ± 0.004 mL/cm^3/min
- V T (pons, ultra-high SA): 2.39 ± 0.23 mL/cm^3
- k 2 (pons, ultra-high SA): 1.131 ± 0.084 min⁻¹
- k 3 (pons, ultra-high SA): 0.253 ± 0.011 min⁻¹
- k 4 (pons, ultra-high SA): 0.026 ± 0.001 min⁻¹
- BP ND (k 3/k 4) (striatum, conventional SA): 20.0 ± 1.1
- DV f (K 1/k 2) (striatum, conventional SA): 0.367 ± 0.015
- K 1 (striatum, conventional SA): 0.278 ± 0.014 mL/cm^3/min
- V T (striatum, conventional SA): 7.7 mL/cm^3 and 7.66 ± 0.28 mL/cm^3
- k 2 (striatum, conventional SA): 0.769 ± 0.061 min⁻¹
- k 3 (striatum, conventional SA): 0.612 ± 0.036 min⁻¹
- k 4 (striatum, conventional SA): 0.031 ± 0.001 min⁻¹
- BP ND (k 3/k 4) (striatum, ultra-high SA): 30.6 ± 1.8
- DV f (K 1/k 2) (striatum, ultra-high SA): 0.311 ± 0.021
- K 1 (striatum, ultra-high SA): 0.294 ± 0.014 mL/cm^3/min
- V T (striatum, ultra-high SA): 9.7 mL/cm^3 and 9.66 ± 0.41 mL/cm^3
- k 2 (striatum, ultra-high SA): 0.972 ± 0.083 min⁻¹
- k 3 (striatum, ultra-high SA): 0.722 ± 0.043 min⁻¹
- k 4 (striatum, ultra-high SA): 0.024 ± 0.001 min⁻¹
- BP ND (k 3/k 4) [3]: 16.6 ± 1.6
- DV f (K 1/k 2) [3]: 0.378 ± 0.030
- K 1 [3]: 0.298 ± 0.021 mL/cm^3/min
- V T [3]: 6.4 mL/cm^3 and 6.44 ± 0.22 mL/cm^3
- k 2 [3]: 0.840 ± 0.128 min⁻¹
- k 3 [3]: 0.470 ± 0.031 min⁻¹
- k 4 [3]: 0.029 ± 0.001 min⁻¹
- BP ND (k 3/k 4) [4]: 26.1 ± 2.0
- DV f (K 1/k 2) [4]: 0.321 ± 0.023
- K 1 [4]: 0.292 ± 0.012 mL/cm^3/min
- V T [4]: 8.5 mL/cm^3 and 8.53 ± 0.47 mL/cm^3
- k 2 [4]: 0.933 ± 0.075 min⁻¹
- k 3 [4]: 0.602 ± 0.036 min⁻¹
- k 4 [4]: 0.023 ± 0.001 min⁻¹
- BP ND (k 3/k 4) (thalamus, conventional SA): 25.5 ± 1.2
- DV f (K 1/k 2) (thalamus, conventional SA): 0.347 ± 0.018
- K 1 (thalamus, conventional SA): 0.303 ± 0.012 mL/cm^3/min
- V T (thalamus, conventional SA): 9.1 mL/cm^3 and 9.12 ± 0.37 mL/cm^3
- k 2 (thalamus, conventional SA): 0.886 ± 0.064 min⁻¹
- k 3 (thalamus, conventional SA): 0.669 ± 0.033 min⁻¹
- k 4 (thalamus, conventional SA): 0.026 ± 0.001 min⁻¹
- BP ND (k 3/k 4) (thalamus, ultra-high SA): 38.5 ± 1.1
- DV f (K 1/k 2) (thalamus, ultra-high SA): 0.284 ± 0.018
- K 1 (thalamus, ultra-high SA): 0.313 ± 0.016 mL/cm^3/min
- V T (thalamus, ultra-high SA): 11.2 mL/cm^3 and 11.15 ± 0.51 mL/cm^3
- k 2 (thalamus, ultra-high SA): 1.125 ± 0.088 min⁻¹
- k 3 (thalamus, ultra-high SA): 0.817 ± 0.025 min⁻¹
- k 4 (thalamus, ultra-high SA): 0.021 ± 0.000 min⁻¹
